Laboratory results from patent US9738669B2, “Pentaaza macrocyclic ring complexes possessing oral bioavailability” (Galera Labs, LLC, priority 2015, dated 2017).
Values belong to the molecule of their own block, whether it stands above or below them.

How the values were obtained:
[1] = Intraduodenal (id) bioavailability screen in minipigs, plasma level of parent Mn complex by HPLC/MS/MS; assay type: in vivo, Gottingen minipig; details: id 10 mg/kg, vs 1 mg/kg iv parent chloro complex, AUC0→24 h
Experimental: Compounds were screened for oral bioavailability by injecting the formulated prodrugs directly into the duodenum (intraduodenal or id administration) of the minipig test subjects, thus bypassing the acidic environment of the stomach and thereby eliminating potentially misleading oral bioavailability results that could arise from alteration of the test article drug in the acid environment of the stomach.
The studies were conducted at Xenometrics LLC (Stillwell, Kans.) and the id bioavailability was determined using various axial ligand derivative complexes of GC4419, GC4444, GC4403 and GC4401.
Male Gottingen minipigs (4-5 mo old, 9-12 kg weight) were purchased from Marshall BioResources and housed at Xenometrics. […] The distal end was exteriorized with a reusable accessible hub (see surgical details below). During a recovery period of at least 2 weeks the minipigs were handled daily to acclimate them to the test procedures, i.e., id dosing and blood collections. For each experiment, each minipig received a test article drug dissolved or suspended in an excipient vehicle. […] All dosing experiments were conducted in fasted animals. Food was withdrawn from the minipigs 16 hours before dosing. The minipigs had ad libitum access to water. Dosed minipigs were allowed access to food 6 hour after dosing. The test article was administered at a dose of 10 mg/kg parent drug in 0.1 mL/kg vehicle (e.g., 1.5 mL in 15 kg minipig) as a bolus injection (˜1 minute) via the id cannula. The actual amount of total test article drug administered varied with the formula weight of the prodrug. An equal volume of excipient vehicle was used to flush the cannula after the test article was administered. Approximately 6 hours later, corn oil was used to flush the cannula. After approximately 24 hours post-dose, the catheter was flushed with sterile saline solution and capped. At the following time-points 0.25, 0.5, 1, 2, 4, 8, 24 and 48 hour post-injection, 2 mL blood samples were collected by cranial vena cava puncture (4 mL Sodium heparin Vacutainer, 20 g 1.5″ needle) after the skin surface was wiped with ethanol. The minipig was placed in a sling in a recumbent position without anesthesia for the collection of blood samples. The minipigs were never used more than once per 7 days for experimentation. The blood samples were kept on ice until processed for plasma. Blood samples were centrifuged at 1200×g for ten minutes at 4° C. and plasma samples were transferred to 96 well plate tubes, capped and stored at −20° C. until shipment on dry ice to the analytical laboratory used for measuring the concentration of drug in the plasma. The concentration of the parent manganese pentaaza macrocylic ring complex (independent of the composition of the axial ligands) was measured in plasma using a validated HPLC/MS/MS method that is linear between 50 ng/mL and 20,000 ng/mL.
The oils used for preparing the dosing solutions were used as supplied from commercial sources. The Capmul MCM (NF) is a mixture of mono/diglycerides of caprylic/capric acids and was supplied by ABITEC Corporation, Janesville, Wis. The Miglyol 812 N is a mixture of caprylic/capric acid triglycerides and was supplied by Cremer Oleo Division, Eatontown, N.J. Labrafil M 2125 CS (NF) is chemically defined to be linoleoyl polyoxyl-6 glycerides NF and was supplied by Gattefosse, SAINT-PRIEST Cedex, France. Peceol is chemically defined to be the monoglyceride, glyceryl monooleate NF, and was supplied by Gattefosse, SAINT-PRIEST Cedex, France. Maisine 35-1 is chemically defined to be the monoglyceride glyceryl monolinoleate (NF) and was supplied by Gattefosse, SAINT-PRIEST Cedex, France. Labrasol (NF) is chemically defined to be caprylocaproyl polyoxyl-8 glycerides NF and was supplied by Gattefosse, SAINT-PRIEST Cedex, France. Labrafil M 1944 CS is chemically defined to be oleoyl polyoxyl-6 glycerides (NF), and is available from Gattefosse, SAINT-PRIEST Cedex, France. […]

[2] = test system: rats subjected to an experimental model of colitis; details: ip injection; cited from earlier work
[3] = test system: hamster model of acute, radiation-induced oral mucositis; details: ip; cited from earlier work
[4] = test system: lethal total body irradiation of adult mice; details: ip; cited from earlier work
[5] = test system: rat model of inflammation; details: ip; cited from earlier work
[6] = test system: rat model of collagen-induced arthritis; details: ip; cited from earlier work
Solubility in water = assay type: physicochemical
[7] = test system: VEGFr inhibitor-induced pulmonary disease; details: ip, rat model; cited from earlier work
[8] = test system: oral mucositis in head-and-neck cancer patients; details: intravenous (iv) infusion, head-and-neck cancer patients undergoing chemoradiation therapy; cited from earlier work
[9] = base oil Capmul MCM, 10% by weight
[10] = base oil Miglyol 812N, 10% by weight

Molecule: [Cl-].[Cl-].[Mn+2].c1cc2nc(c1)CN[C@@H]1CCCC[C@H]1NCCN[C@@H]1CCCC[C@H]1NC2 [GC4403]
Mini-Pig BioA [1, 9]: 9% | injury to the colon [2]: significantly reduce the injury to the colon | radiation damage [3]: attenuate the radiation damage | radiation damage [4]: attenuate the radiation damage | inflammation [5]: inhibit inflammation | joint disease [6]: prevent joint disease

Molecule: Manganese(II)bis-racemic-phenylglycinato[2S,21S-Dimethyl(4aR,13aR,17aR,21aR)-1,2,3,4,4a,5,6,12,13,13a,14,15,16,17,17a,18,19,20,21,21a-Eicosahydro-11,7-nitrilo-7H-dibenzo[b,h][1,4,7,10]tetraazacycloheptadecine-κN5,κN13,κN18,κN21,κN22]- [GC4715]
Mini-Pig BioA [1, 9]: 36%

Molecule: Manganese(II)bis-racemic-phenylglycinato[6R-Methyl(4aR,13aR,17aR,21aR)-1,2,3,4,4a,5,6,12,13,13a,14,15,16,17,17a,18,19,20,21,21a-Eicosahydro-11,7-nitrilo-7H-dibenzo[b,h][1,4,7,10]tetraazacycloheptadecine-κN5,κN13,κN18,κN21,κN22]- [GC4716]
Mini-Pig BioA [1, 9]: 34%

Molecule: Manganese(II)bis-racemic-phenylglycinato[(4aR,13aR,17aR,21aR)-1,2,3,4,4a,5,6,12,13,13a,14,15,16,17,17a,18,19,20,21,21a-Eicosahydro-11,7-nitrilo-7H-dibenzo[b,h][1,4,7,10]tetraazacycloheptadecine-κN5,κN13,κN18,κN21,κN22]- [GC4717]
Mini-Pig BioA [1, 9]: 26%

The next lines start with results.

Mini-Pig BioA [1, 9]: 9% | Mini-Pig BioA ([1]; base oil Labrafil M2125 CS, 10% by weight): 7% | Mini-Pig BioA ([1]; base oil Maisine 35-1, 10% by weight): 8% | Mini-Pig BioA [1, 10]: 8% | Mini-Pig BioA ([1]; base oil Peceol, 10% by weight): 9% | solubility in water (Solubility in water): relatively readily soluble in water
Molecule: [Cl][Mn][Cl].c1cc2nc(c1)CN[C@H]1CCCC[C@@H]1NCCN[C@H]1CCCC[C@@H]1NC2 [GC4419, reference compound]
VEGFr inhibitor-induced pulmonary disease [7]: attenuate VEGFr inhibitor-induced pulmonary disease | oral mucositis [8]: reduce oral mucositis

Mini-Pig BioA [1, 9]: 33% | Mini-Pig BioA [1, 10]: 32%
Molecule: Manganese(II)bis-racemic-phenylglycinato[(4aS,13aS,17aS,21aS)-1,2,3,4,4a,5,6,12,13,13a,14,15,16,17,17a,18,19,20,21,21a-Eicosahydro-11,7-nitrilo-7H-dibenzo[b,h][1,4,7,10]tetraazacycloheptadecine-κN5,κN13,κN18,κN21,κN22]- [GC4720]
